# Measured values taken from patent US5726195A, “Aminoacyl adenylate mimics as novel antimicrobial and antiparasitic agents” (Cubist Pharmaceuticals, Inc., priority 1996, dated 1998).
# How the values were obtained:
# [1] = test system: multidrug resistant Streptococcus pyogenes (#OTTO 209); assay: Mouse protection test against multidrug resistant Streptococcus pyogenes; format: in vivo, Streptococcus pyogenes; female CD-1 mice; conditions: for Protective % / Number of Alive: repeated at 4 hours, 7 days; for Number of Alive: of 5 mice
# Source text: The mouse protection test is an industry standard for measuring the efficacy of a test compound in vivo [for examples of this model see J. J. Clement, et al., Antimicrobial Agents and Chemotherapy, 38 (5), 1071-1078, (1994)]. As exemplified below, this test was used to show the in vivo efficacy of the compounds of the present invention against bacteria.
# The in vivo activity of compound X against multidrug resistant bacteria was established by infecting female CD-1 mice (Charles River Lab, Massachusettes) weighing 20-24 g intraperitoneally with multidrug resistant Streptococcus pyogenes inoculum. The inoculum was prepared from multidrug resistant Streptococcus pyogenes (resistant to erythromycin, tetracycline, and chloramphenicol, #OTTO 209 obtained from Dr. Pentti Huovinen, National Public Health Institute, Finland) which was cultured in brain heart infusion broth (Baltimore Biological Laboratories, Maryland) at 37° C. for 2 hr, and then 0.1 ml of the culture was diluted with the medium to 1.0 ml for reading its OD at 600 nm (0.12). The turbidity of a 0.5 McFarland standard is equivalent to OD600 0.1, or 10^8 cfu/ml. Then, 4×10^8 cfu of the bacteria (333 μl was added to 20 ml of phosphate buffered saline (Sigma P-0261 ) containing 10 % hog gastric mucin (Sigma M-2378). All animals were injected with 0.5 ml of the inoculum, equivalent to 10^7 cfu/mouse which is the dose causing ~100% death of the animals without treatment.
# Compound X (60 mg) was dissolved in 6.0 ml of 0.05M Tris.HCl (pH 8.8) to give a solution of 10 mg/ml. This solution was serially diluted two times with 0.05M Tris.HCl by 5-fold (1.0 ml to 5.0 ml) to give 2 and 0.4 mg/ml solutions. The known antibiotic vancomycin HCl (Sigma V-2002, in normal saline, 1 mg/ml, pH 6.0-7.0) was used as a positive control. All the solutions were filtered with 0.2 μm Nalgene syringe filter. Immediately after the bacterial inoculation, group 1 animals were subcutaneously (sc) injected with 0.05M Tris.HCl (no antibiotic) and groups 2 to 4 were given compound X sc at 4, 20 and 100 mg/kg, respectively. Group 5 animals received vancomycin sc at 10 mg/kg. These injections were repeated once at 4 hours after the inoculation for the respective groups. The injection volume at each time was 10 ml per kilogram of body weight. The 50% protective dose (PD50) is calculated on the basis of the number of mice surviving 7 days after inoculation.
# [2] = test system: Streptococcus pyogenes (ATCC 8668); assay: Mouse protection test against wild type Streptococcus pyogenes; format: in vivo, Streptococcus pyogenes; female CD-1 mice; conditions: 0.08 mg/kg sc, repeated at 4 hours, 7 days
# [3] = test system: H. influenza ATCC 49247; assay: Whole cell antimicrobial screen, MIC; format: cell-based
# Procedure, shortened: (§1)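 Compounds in DMSO were diluted into growth medium to final concentrations of 0.1 μg/mL-500 μg/mL, then added as 2-fold dilutions to 5×10^4 bacterial cells. After overnight incubation at 30° C.-37° C., optical density was measured, and the MIC was assigned as the lowest concentration preventing growth.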
# [4] = test system: E. faecalis ATCC 33011; assay: Whole cell antimicrobial screen, MIC; format: cell-based; conditions: Enterococcus faecalis, ATCC33011
# Procedure, shortened: as §1
# [5] = test system: S. pyogenes ATCC 8668; assay: Whole cell antimicrobial screen, MIC; format: cell-based; conditions: Streptococcus pyogenes, ATCC8668
# Procedure, shortened: as §1
# [6] = test system: S. epidermidis ATCC 33501; assay: Whole cell antimicrobial screen, MIC; format: cell-based; conditions: Staphylococcus epidermidis, ATCC33501
# Procedure, shortened: as §1
# [7] = test system: M. catarrhalis ATCC 25240; assay: Whole cell antimicrobial screen, MIC; format: cell-based; conditions: Moraxella catarrhalis, ATCC25240
# Procedure, shortened: as §1
# [8] = test system: B. subtilis ATCC 6633; assay: Whole cell antimicrobial screen, MIC; format: cell-based; conditions: Bacillus subtilis, ATCC6633
# Procedure, shortened: as §1
# [9] = test system: S. aureus ATCC 14154; assay: Whole cell antimicrobial screen, MIC; format: cell-based; conditions: Staphylococcus aureus, ATCC14154
# Procedure, shortened: as §1
# [10] = test system: S. saprophyticus ATCC 35552; assay: Whole cell antimicrobial screen, MIC; format: cell-based; conditions: Staphylococcus saprophyticus, ATCC35552
# Procedure, shortened: as §1
# [11] = test system: K. pneumonia ATCC 4352; assay: Whole cell antimicrobial screen, MIC; format: cell-based; conditions: Klebsiella pneumoniae, ATCC4352
# Procedure, shortened: as §1
# [12] = test system: S. aureus ATCC 6538P; assay: Whole cell antimicrobial screen, MIC; format: cell-based; conditions: Staphylococcus aureus, ATCC6538P
# Procedure, shortened: as §1
# [13] = test system: E. faecium ATCC 6569; assay: Whole cell antimicrobial screen, MIC; format: cell-based; conditions: Enterococcus faecium, ATCC6569
# Procedure, shortened: as §1
# [14] = test system: C. albicans ATCC 10231; assay: Whole cell antimicrobial screen, MIC; format: cell-based; conditions: Candida albicans, ATCC10231
# Procedure, shortened: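 NCCLS microdilution; 5×10^4 cells/well; 2-fold serial dilutions, 0.1-500 μg/mL final; DMSO ≤1% final; overnight, 30-37° C; OD read; MIC = lowest conc. with no growth.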
# [15] = test system: S. pneumonia ATCC 49619; assay: Whole cell antimicrobial screen, MIC; format: cell-based
# Procedure, shortened: as §1
smiles,measurement,setting,value
"CC[C@H](C)[C@H](N)C(=O)NS(=O)(=O)OC[C@H]1O[C@@H](CCn2nnc(-c3ccc(Oc4ccccc4)cc3)n2)[C@H](O)[C@@H]1O [Compound X, [S-(R*,R*)]-3,6-anhydro-1,2-dideoxy-1-[5-(4-phenoxyphenyl)-2H-tetrazol-2-yl]-D-allo-heptitol 7-(2-amino-3-methyl-1-oxopentyl)sulfamate]",Protective %,[1]; 4 mg/kg sc,0%
same,Number of Alive,[1]; 4 mg/kg sc,0
same,Protective %,[1]; 20 mg/kg sc,80%
same,Number of Alive,[1]; 20 mg/kg sc,4
same,Protective %,[1]; 100 mg/kg sc,100%
same,Number of Alive,[1]; 100 mg/kg sc,5
same,ED50,"[1]; Streptococcus pyogenes, 168 h, sc, mice surviving 7 days after inoculation, multidrug resistant, read-out: PD50 (50% protective dose)",16.5 mg/kg
same,Protective %,[2],0%
same,Number of Alive,[2]; of 5 mice,0
same,MIC,[3],100 µg/mL
same,MIC,[4],300 µg/mL
same,MIC,[5],0.5 µg/mL
same,MIC,[6],2 µg/mL
same,MIC,[7],25 µg/mL
same,MIC,[8],10 µg/mL
same,MIC,[9],25 µg/mL
same,MIC,[10],5 µg/mL
same,MIC,[11],50 µg/mL
same,MIC,[12],10 µg/mL
same,MIC,[13],10 µg/mL
same,MIC,[14],> 500 µg/mL
same,MIC,[15],25 µg/mL
